Patent US20110250294A1, “COMBINATIONS OF PRESERVATIVE COMPOSITIONS FOR OPHTHALMIC FORMULATIONS” (ALLERGAN, INC., priority 2010, published 2011)

Tested on: S. aureus, P. aeruginosa, c. albicans, E. coli and/or A. niger
Experiment: abbreviated preservative efficacy test against Ph Eur-A (EP-A) and Ph Eur-B (EP-B) criteria
Assay type: cell-based
Conditions: 20 ppm BAK alone in ophthalmic solution
Procedure: Each of these formulations is tested by performing an abbreviated preservative efficacy test using test organisms S. aureus, P. aeruginosa, c. albicans, E. coli and/or A. niger. The formulations are tested against United States Preservative Efficacy Test (USP), European Efficacy Test-A (EP-A) and European Efficacy Test-B (EP-B) criteria as indicated. Ten (10) ml of each formulation is challenged with approximately 10^5 cfu/ml of test organism. At appropriate time intervals, the amount of bacterial and fungal survivors are assayed using Dey Engley broth (DE) as the neutralizer media. DE, along with filtration, is sufficient at neutralizing the antimicrobial agents in the compositions. One (1) ml of each sample is diluted into nine (9) ml of DE. One (1) ml of the 1:10 dilution is filtered through a 0.45 µm filter and washed with 100 ml of a saline/polysorbate 80 solution. After washing the filtrate a second time with 100 ml of saline/polysorbate 80 solution, the filtrate is placed onto a TSA plate for bacteria and SAB for fungi.

benzalkonium chloride [BAK] was tested, and the “Ph Eur-B & A criteria (pass/fail)” value was “failed”.
